Laboratory results from patent US7799739B2, “Biphenylcarboxamides for controlling micro-organisms” (Bayer CropScience AG, priority 2005, dated 2010).
Blank lines part the entries; values can stand above or below the molecule they belong to.

Columns and labels:
[1] = tested on: Uromyces appendiculatus; experiment: Uromyces test (bean)/protective; type: in vivo; settings: bean plants, protective spray, application rate 100 ppm, evaluation 10 days after inoculation
Protocol: (§1) To produce a suitable preparation of active compound, 1 part by weight of active compound is mixed with the stated amounts of solvents and emulsifier, and the concentrate is diluted with water to the desired concentration.
(§2) To test for protective activity, young plants are sprayed with the active compound preparation at the stated application rate. After the spray coating has dried on, the plants are inoculated with an aqueous spore suspension of the bean rust pathogen Uromyces appendiculatus and then remain in an incubation cabin at about 20° C. and 100% relative atmospheric humidity for 1 day. The plants are then placed in a greenhouse at about 21° C. and a relative atmospheric humidity of about 90%.
(§3) Evaluation is carried out 10 days after the inoculation. 0% means an efficacy which corresponds to that of the control, whereas an efficacy of 100% means that no infection is observed.

[2] = logP determination by HPLC on reverse-phase column (C 18), EEC Directive 79/831 Annex V.A8; type: physicochemical; settings: reverse-phase HPLC column (C 18), pH 2.3, HPLC, 0.1% aqueous phosphoric acid/acetonitrile, 43° C.
Protocol: The logP values given in the Tables and Preparation Examples above are determined in accordance with EEC Directive 79/831 Annex V.A8 by HPLC (High Performance Liquid Chromatography) on a reverse-phase column (C 18). Temperature: 43° C.
The determination is carried out in the acidic range at pH 2.3 using the mobile phases 0.1% aqueous phosphoric acid and acetonitrile; linear gradient from 10% acetonitrile to 90% acetonitrile.
Calibration is carried out using unbranched alkan-2-ones (having 3 to 16 carbon atoms) with known logP values (determination of the logP values by the retention times using linear interpolation between two successive alkanones).

[3] = tested on: Puccinia recondita; experiment: Puccinia test (wheat)/protective; type: in vivo; settings: wheat plants, protective spray, application rate 1000 ppm, evaluation 10 days after inoculation
Protocol: To produce a suitable preparation of active compound, 1 part by weight of active compound is mixed with the stated amounts of solvent and emulsifier, and the concentrate is diluted with water to the desired concentration.
To test for protective activity, young plants are sprayed with the active compound preparation at the stated application rate. After the spray coating has dried on, the plants are sprayed with a conidia suspension of Puccinia recondita. The plants remain in an incubation cabin at 20° C. and 100% relative atmospheric humidity for 48 hours.
The plants are then placed in a greenhouse at a temperature of about 20° C. and a relative atmospheric humidity of 80% to promote the development of rust pustules.
as §3

[4] = tested on: Venturia inaequalis; experiment: Venturia test (apple)/protective; type: in vivo; settings: apple plants, protective spray, application rate 100 ppm, evaluation 10 days after inoculation
Protocol: as §1
as §2, with “conidia” for “spore”, “apple scab” for “bean rust”, “Venturia inaequalis” for “Uromyces appendiculatus”
as §3

[5] = tested on: Botrytis cinerea; experiment: Botrytis test (bean)/protective; type: in vivo; settings: bean plants, protective spray, application rate 100 ppm, evaluation 2 days after inoculation
Protocol: as §1
To test for protective activity, young plants are sprayed with the active compound preparation at the stated application rate. After the spray coating has dried on, 2 small pieces of agar colonized by Botrytis cinerea are placed onto each leaf. The inoculated plants are placed in a dark chamber at about 20° C. and 100% relative atmospheric humidity.
The size of the infected areas on the leaves is evaluated 2 days after the inoculation. 0% means an efficacy which corresponds to that of the control, whereas an efficacy of 100% means that no infection is observed.

SMILES: COC(=O)c1ccc(-c2cc(F)ccc2NC(=O)c2cn(C)nc2C(F)F)cc1F [drawing 33]
- Efficacy in % [1]: 78%

- chromatographic logP ([2]; starting materials of formula (III)): 2.73
SMILES: COC(=O)c1ccc(-c2cc(F)ccc2N)cc1F [No. 9 (III), methyl 2′-amino-3,5′-difluorobiphenyl-4-carboxylate]

SMILES: COC(=O)c1ccc(-c2cc(F)ccc2NC(=O)c2cn(C)nc2C(F)F)cc1F [drawing 35]
- Efficacy in % [3]: 90%

SMILES: COC(=O)c1ccc(-c2cc(F)ccc2NC(=O)c2cn(C)nc2C(F)(F)F)cc1F [drawing 34]
- Efficacy in % [3]: 100%

SMILES: COC(=O)c1ccc(-c2cc(F)ccc2NC(=O)c2cn(C)nc2C(F)F)cc1F [drawing 30]
- Efficacy in % [4]: 71%

SMILES: COC(=O)c1ccc(-c2cc(F)ccc2NC(=O)c2cn(C)nc2C(F)(F)F)cc1F [drawing 32]
- Efficacy in % [1]: 93%

SMILES: COC(=O)c1ccc(-c2cc(F)ccc2NC(=O)c2cn(C)nc2C(F)(F)F)cc1F [drawing 31]
- Efficacy in % [5]: 78%

- chromatographic logP ([2]; compounds of formula (I)): 2.64
SMILES: COC(=O)c1ccc(-c2cc(F)ccc2NC(=O)c2cn(C)nc2C(F)(F)F)cc1F [No. 1, methyl 3,5′-difluoro-2′-({[1-methyl-3-(trifluoromethyl)-1H-pyrazol-4-yl]carbonyl}amino)biphenyl-4-carboxylate]
